Measurements taken from US11591288B2, “Compositions and methods for treating atherosclerotic cardiovascular disease” (GAVISH-GALILEE BIO APPLICATIONS LTD., priority 2017, dated 2023).

What was measured:
[1] = tested on: rePON1; test: rePON1 arylesterase activity (phenyl acetate assay) after incubation with lyso-DGTS; type: biochemical; settings: 0-100 μg/ml lyso-DGTS, 2 or 4 h, 37° C.
Description: (§1) To 200 μl of rePON1 solution (5 μg/ml) in Tris-HCl buffer pH=8.4 was added 1 μl of lyso-DGTS dissolved in dimethyl sulfoxide (DMSO) to a final concentration of 1, 5, 10, 50, and 100 μg/ml. 1 μl DMSO was added to the control rePON1 solution. The mixtures were incubated at 37° C. for 2, 4, 24 or 48 h.
10 μl from each solution were taken to a UV 96-well microplate wells containing 90 μl Tris-HCL buffer pH=8.4 with 1 mM CaCl2 (activity buffer). Then 100 μl phenyl acetate, 2 mM in the activity buffer was added (prepared from a stock of 100 mM phenyl acetate in DMSO). Phenyl acetate hydrolysis rate was measured at 270 nm, once in 25 seconds, for 15 minutes using SpectraMax M2 Reader. One unit of esterase activity was equal to the hydrolysis of 1 μmol of phenyl acetate/min. Lactonase and esterase unit activity were calculated by the following equation: Unit=slope (mOD/min)×5(per ml)×666.7(dilution)/700. Human Serum PON1 Lactonase Activity
(§2) The effect of lyso-DGTS on lactonase and arylesterase activities of rePON1 was examined. rePON1 (5 μg/ml in Tris buffer pH=8.4) was incubated with different concentrations of lyso-DGTS for 2, 4, 24, and 48 h at 37° C., and its lactonase and aryesterase activities were measured using dihydrocoumarin and phenyl acetate assays, respectively.

[2] = target: PON1 (Homo sapiens, UniProt P27169); test: PON1 binding to HDL (ratio HDL-bound PON1 vs. free PON1); settings: data not shown
Sequence of PON1 (P27169 whole entry, species assumed): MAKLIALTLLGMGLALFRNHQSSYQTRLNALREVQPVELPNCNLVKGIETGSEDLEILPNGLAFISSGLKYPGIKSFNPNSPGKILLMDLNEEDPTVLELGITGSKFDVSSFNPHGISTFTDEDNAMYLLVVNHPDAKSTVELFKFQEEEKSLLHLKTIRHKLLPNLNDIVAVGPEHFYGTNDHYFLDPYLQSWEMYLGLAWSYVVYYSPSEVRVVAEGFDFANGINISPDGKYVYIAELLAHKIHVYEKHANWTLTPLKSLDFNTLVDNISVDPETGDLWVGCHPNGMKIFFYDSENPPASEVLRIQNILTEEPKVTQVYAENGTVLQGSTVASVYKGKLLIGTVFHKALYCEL

[3] = tested on: J774A.1 macrophages; test: rePON1 influx to J774A.1 macrophages (FITC-rePON1, FACS); type: cell-based, murine; settings: 16 h, 61.62 for rePON1-FITC alone
Description: rePON1 (2 mg/ml) was reacted with fluorescein isothiocyanate (FITC) (200 μg/ml) for 1 h at 37° C. in the dark in borate buffer (PH=8.6). Glycine 10 mM was added and the solution was dialyzed using PBS buffer to remove FITC excess. RePON1-FITC conjugate (50 μg/ml) was incubated with lyso-DGTS at different concentration (10, 20, 50 and 100 μg/ml) into RPMI for 2 h. The solution was added to J774A.1 macrophages and incubated for 16 h. Cells were washed three times with sterile PBS buffer (0.1% sodium azid, 0.2% bovine serum albumin (BSA)), harvested in PBS (buffer) and analyzed by fluorescence-activated cell sorting (FACS) (Facscalibur 4ca). Results are presented as mean fluorescence intensity (MFI).
RePON1 was labeled with FITC and incubated with lyso-DGTS at different concentrations (10, 20, 50, and 100 μg/ml) for 2 h. Each solution was added to J774A.1 macrophages and incubated at 37° C. for 16 h, and then analyzed by fluorescence-activated cell sorting (FACS). […] The MFI increased from 61.62 for rePON1-FITS alone to 131.02, 368.61, 386.46, and 517.45 for rePON1 incubated with lyso-DGTS at 10, 20, 50, and 100 μg/ml, respectively (FIG. 6B).

[4] = tested on: rePON1; test: rePON1 lactonase activity (dihydrocoumarin assay) after incubation with lyso-DGTS; type: biochemical; settings: for rePON1 lactonase activity: 2 h incubation, 37° C., 3.00 units without lyso-DGTS
Description: as §1
10 μl from each solution were taken to a UV 96-well microplate containing 90 μl Tris-HCL buffer pH=8.4 with 1 mM CaCl2 (activity buffer) in each well. Then 100 μl dihydrocoumarin, 2 mM in the activity buffer was added (prepared from a stock of 100 mM dihydrocoumarin in DMSO). Dihydrocoumarine hydrolysis rate was measured at 270 nm, once in 25 seconds for 15 minutes, using SpectraMax M2 Reader. Non-enzymatic hydrolysis of dihydrocoumarin was subtracted from the total rate of hydrolysis. One unit of lactonase activity was equal to the hydrolysis of 1 μmol of dihydrocoumarin/min.
as §2

[5] = tested on: HDL; test: HDL-lyso-DGTS interaction, Trp fluorescence quenching; type: binding, human
Description: FIGS. 10A-10B show tryptophan fluorescence spectra of HDL (0.03 mg/ml) incubated with/without lyso-DGTS at various concentrations (1, 5, 10, 25, 50, 75, and 100 μg/ml) in black 96-well plates for 4 h at 37° C. (10A) or 25° C. (10B). The fluorescence was measured at excitation/emission 290/320-340 nm. The ability of lyso-DGTS to elevate HDL activity correlates with its binding affinity to HDL. Each experiment repeated separately at least three times.
HDL and LDL were isolated from human plasma samples by discontinuous density gradient ultracentrifugation and dialyzed against saline containing sodium ethylenediaminetetraacetic acid (EDTA; 1 mmol/L) to protect the lipoproteins against oxidation. Before generating the experiments, LDL and HDL were dialyzed twice, for 1 h each time, and once more overnight against PBS at 4° C. to remove EDTA.
In order to test whether the protective effect of lyso-DGTS on HDL occurs via specific interaction between lyso-DGTS and the lipoprotein, the HDL-lyso-DGTS interaction was investigated by the Trp-fluorescence-quenching method. […] (FIG. 10A) and 25° C. (FIG. 10B) in the 300-450 nm range with an excitation wavelength of 290 nm. Lyso-DGTS quenched HDL fluorescence in a dose-dependent manner at both temperatures.
Quenching pathways can be described by the Stem-Volmer equation (eq. 1 above). The Stern-Volmer curve was linear at the tested concentration of lyso-DGTS at both temperatures (with R>0.99 and p<0.0001). The Ksv values were (5.59±0.42)×10^3 M^−1 at 37° C. (FIG. 11A) and (4.83±0.59)×10^3 M^−1 at 25° C.
The binding constant and binding sites were calculated as shown for rePON1, using eq. 2 above. […] (FIG. 11D). The values obtained for n were not affected by temperature and were equal to 1 (Table 5). The thermodynamic parameters: enthalpy (ΔH), entropy (ΔS), and free energy (ΔG) were calculated to characterize the HDL-lyso-DGTS interaction type.

CC/C=C\C/C=C\C/C=C\C/C=C\C/C=C\CCCC(=O)OCC(O)COCCC(C(=O)[O-])[N+](C)(C)C (stereo not drawn) [lyso-DGTS, lyso-diacylglyceryltrimethylhornmoserine]
effect on rePON1 arylesterase activity [1]: increases rePON1 lactonase and arylesterase activities in a dose and time dependent manner
ratio between HDLbound-PON1 vs. free-PON1 [2]: did not change
mean fluorescence intensity (MFI) of FITC-rePON1 in cells ([3]; 10 μg/ml lyso-DGTS): 131.02
mean fluorescence intensity (MFI) of FITC-rePON1 in cells ([3]; 20 μg/ml lyso-DGTS): 368.61
mean fluorescence intensity (MFI) of FITC-rePON1 in cells ([3]; 50 μg/ml lyso-DGTS): 386.46
mean fluorescence intensity (MFI) of FITC-rePON1 in cells ([3]; 100 μg/ml lyso-DGTS): 517.45
rePON1 lactonase activity ([4]; 1 μg/ml lyso-DGTS): 4.05 units
rePON1 lactonase activity preserved after incubation for 48 h ([4]; 1 μg/ml lyso-DGTS): 9%
rePON1 lactonase activity ([4]; 5 μg/ml lyso-DGTS): 5.73 units
rePON1 lactonase activity preserved after incubation for 48 h ([4]; 5 μg/ml lyso-DGTS): 33%
rePON1 lactonase activity ([4]; 10 μg/ml lyso-DGTS): 8.10 units
rePON1 lactonase activity preserved after incubation for 48 h ([4]; 10 μg/ml lyso-DGTS): 49%
rePON1 lactonase activity ([4]; 50 μg/ml lyso-DGTS): 11.61 units
rePON1 lactonase activity preserved after incubation for 48 h ([4]; 50 μg/ml lyso-DGTS): 69%
rePON1 lactonase activity ([4]; 100 μg/ml lyso-DGTS): 12.7 units
rePON1 lactonase activity preserved after incubation for 48 h ([4]; 100 μg/ml lyso-DGTS): 66%
time for which rePON1 lactonase activity is stabilized and preserved ([4]; in buffer solution, abolished after 48 h without lyso-DGTS): at least 48 h
Stern-Volmer quenching constant Ksv, HDL ([5]; 25° C.): (4.83±0.59)×10^3 M^−1
Stern-Volmer quenching constant Ksv, HDL ([5]; 37° C.): (5.59±0.42)×10^3 M^−1
Binding constant Ka, lyso-DGTS-HDL ([5]; 298 K (25° C.)): 3780 M⁻¹
Binding constant Ka, lyso-DGTS-HDL ([5]; 310 K (37° C.)): 21650 M⁻¹
